Measurements as given in US4474747A, “Process for increasing the tolerance of X-ray contrast media, and contrast media obtained thereby” (Guerbet S.A., priority 1981, dated 1984).

What was measured:
proteins = proteins (Homo sapiens, UniProt P02768); test: Protein binding, Brodersen technique; assay type: in vitro ADME
Description: The degree of the interaction with proteins is an index of the tolerance of contrast media. The lower this interaction, the better the tolerance.
The protein binding was investigated according to the Brodersen technique (J. of Clinical Investigation, 1974, vol. 4, 1353-1364).

Mice = test: Acute intracisternal toxicity (method of Melartin et al.), mice; assay type: in vivo
Description: (§1) Acute intracisternal toxicity was determined by the method of E. Melartin, P. Tuohimaa, R. Dabb, Investigative Radiology, 1970, vol. 5, n°1, 13-21.

Rats = test: Acute intracisternal toxicity (method of Melartin et al.), rats; assay type: in vivo
Description: as §1

Sequence of proteins (P02768 25-609): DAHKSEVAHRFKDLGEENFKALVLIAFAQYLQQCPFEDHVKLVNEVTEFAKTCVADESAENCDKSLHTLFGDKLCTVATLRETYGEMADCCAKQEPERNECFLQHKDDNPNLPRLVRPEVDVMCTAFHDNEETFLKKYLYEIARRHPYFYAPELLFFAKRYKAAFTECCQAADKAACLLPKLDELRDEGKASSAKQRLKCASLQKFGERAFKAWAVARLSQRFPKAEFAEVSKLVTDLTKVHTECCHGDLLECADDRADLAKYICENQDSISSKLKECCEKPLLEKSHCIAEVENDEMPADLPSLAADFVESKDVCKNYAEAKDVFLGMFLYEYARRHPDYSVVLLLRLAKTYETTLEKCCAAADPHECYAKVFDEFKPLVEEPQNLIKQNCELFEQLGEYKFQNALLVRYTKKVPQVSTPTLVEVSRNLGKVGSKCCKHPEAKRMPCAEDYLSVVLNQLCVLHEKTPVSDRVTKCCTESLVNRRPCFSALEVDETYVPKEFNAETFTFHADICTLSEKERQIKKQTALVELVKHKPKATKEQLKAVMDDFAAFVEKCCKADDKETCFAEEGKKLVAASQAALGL

Kd (proteins) [mM]	Structure (SMILES)	also measured
8.2	CNC(=O)c1c(I)c(C(=O)NCC(=O)Nc2c(I)c(C(=O)O)c(I)c(C(=O)NCCO)c2I)c(I)c(N(C)C(C)=O)c1I [Methylglucamine ioxaglate]	
	CC(=O)Nc1c(I)c(C(=O)O)c(I)c(C(=O)NCCO)c1I [Telebrix]	Acute toxicity IC (DL50) Mice (Mice): 0.2 g Eq iodine/kg
0.0781	O=C(CCCCC(=O)Nc1c(I)cc(I)c(C(=O)O)c1I)Nc1c(I)cc(I)c(C(=O)O)c1I [Methylglucamine adipiodone]	
	CNC(=O)c1c(I)c(NC(C)=O)c(I)c(C(=O)O)c1I [Contrix (methylglucamine iothalamate), methylglucamine iothalamate]	Acute toxicity IC (DL50) Rats (Rats): 0.028 mole/rat
